Reference: US20140288040A1, “SUBSTITUTED BENZYLAMINE COMPOUNDS, THEIR USE IN MEDICINE, AND IN PARTICULAR THE TREATMENT OF HEPATITIS C VIRUS (HCV) INFECTION” (ASTEX THERAPEUTICS LIMITED, priority 2011, published 2014)
Counter-ions that a name gives are not always drawn. Like-named read-outs stand apart in the source and are kept apart here.

What was measured:
[1] = target: T1, HCV NS3 protease (full length NS34a) (Hepatitis C virus genotype 1b, UniProt P26663); test: HCV NS3 protease assay (FRET, full length NS34a); assay type: biochemical; details: for inhibition at 0.03 µM: read-out: Activity % inhibition @ 0.03 μM, 0.03 μM compound
T1 construct: The protease activity of the full length NS34a was measured using a FRET-based assay; made in house
Outline: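 FRET readout over 30 minutes at room temperature, with IC50 fitted to initial rates from replicate curves. Enzyme was full-length NS34a; substrate a peptide from the NS4AB cleavage site labelled with QXL520 and 5-FAMsp; buffer 50 mM Tris pH8 containing 20 mM DTT, 1% CHAPS, 10% glycerol and 5% DMSO.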

[2] = test system: HCV subgenomic replicon in Huh-7 cells; test: Replicon assay, EC50 luciferase readout; assay type: cell-based, hepatitis C virus (HCV); details: Hepatitis C virus
Outline: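 Huh-7 cells carrying a subgenomic HCV replicon (NS3-NS5b, firefly luciferase-neo fusion) were treated with compound for 72 h at 37°C, 5% CO2. EC50 derived from Bright-Glo luciferase signal as a proxy for HCV RNA; cell viability measured in parallel by Alamar blue.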

[3] = test system: HCV replicon GT1b RNA in Huh-7 cells; test: Quantitative RT-PCR of HCV replicon RNA levels; assay type: cell-based, hepatitis C virus (HCV)
Description: In order to directly determine HCV replicon RNA levels in HCV replicon bearing Huh-7 cells the cells were seeded at 100,000 cellswell, in 6 well tissue culture plates, and allowed to attach overnight before compound addition at a final DMSO concentration of 0.1%. At 72 hours post compound addition RNA was extracted from DMSO-only treated and compound-treated cells using a Qiagen RNeasy kit (Qiagen) according to the manufacturer's instructions. All samples were then normalized for total RNA concentration. […] Briefly, sample RNA (2 ng) was combined with the NS5A primers listed above at a final concentration of 1 μM and an equal volume of 2× Quantitect SYBR Green RT-PCR Master Mix. […] Amplification of HPRT RNA for each sample was determined in separate reactions. The amount of input RNA from the untreated control sample was varied in order to generate a standard curve by which the relative levels of replicon RNA from each treated sample could be expressed as fold changes relative to the untreated control sample. […] Values were calculated from the average of three independent experiments, where log10 [sequence] levels at day 3, 7, 10, and 14 post compound treatment were subtracted from log10 [sequence] […]

[4] = protease activity of full length NS34a, FRET peptide substrate, read-out: Activity IC50
[5] = Huh-7, 72 h, Huh-7 replicon cells, 72 h, single value, or second value of a pair x:y, read-out: Activity EC50 (μM) (EC50 luciferase readout)

T1 sequence (P26663 1658-1711): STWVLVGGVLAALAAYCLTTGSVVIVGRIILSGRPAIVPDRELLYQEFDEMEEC
T1 sequence (P26663 1027-1657): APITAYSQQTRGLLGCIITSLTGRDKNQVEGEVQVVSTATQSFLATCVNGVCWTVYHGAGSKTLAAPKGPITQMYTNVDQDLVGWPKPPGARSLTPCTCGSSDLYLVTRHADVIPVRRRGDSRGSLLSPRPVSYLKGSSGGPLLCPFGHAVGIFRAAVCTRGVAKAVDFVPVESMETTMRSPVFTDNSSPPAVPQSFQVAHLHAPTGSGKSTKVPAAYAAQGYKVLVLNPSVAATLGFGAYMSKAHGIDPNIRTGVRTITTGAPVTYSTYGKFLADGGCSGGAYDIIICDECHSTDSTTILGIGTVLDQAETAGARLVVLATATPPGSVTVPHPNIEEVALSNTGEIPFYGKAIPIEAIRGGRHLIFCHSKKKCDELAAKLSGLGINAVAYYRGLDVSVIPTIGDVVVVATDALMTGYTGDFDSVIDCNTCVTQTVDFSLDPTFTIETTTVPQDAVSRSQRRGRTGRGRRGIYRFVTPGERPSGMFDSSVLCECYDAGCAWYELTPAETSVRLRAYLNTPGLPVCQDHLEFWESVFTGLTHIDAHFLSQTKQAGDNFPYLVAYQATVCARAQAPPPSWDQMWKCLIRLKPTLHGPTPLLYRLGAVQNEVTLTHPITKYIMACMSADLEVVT

| SMILES | IC50 [1, 4] [nM] | EC50 [2, 5] [µM] | also measured |
| --- | --- | --- | --- |
| CC[C@@H](N[C@@H](C)CC(N)=O)c1ccc(Cl)c(Oc2ccccc2)c1F (single isomer, unassigned) [Example 88] | 100 | 0.4 | EC50 ([2]; Huh-7, replicon assay, set in line with previous observations, read-out: pre-determined EC50 set for the combination experiments): 0.3 µM; decline in HCV replicon RNA over time ([3]; 10x EC50, day 3, 7, 10 and 14, compound alone): comparable over time with Danoprevir and VX-222; decline in HCV replicon RNA, combination ([3]; 10x EC50, in combination with either Danoprevir or VX-222): largest declines |
| CC[C@@H](N[C@@H](C)CC(=O)NCCNC)c1ccc(Cl)c(Oc2ccccc2)c1F [Example 241] | – | 0.98 | inhibition at 0.01 µM ([1]; read-out: Activity % inhibition @ 0.01 μM, 0.01 μM compound): 47% |
| CC[C@@H](N[C@H](C)CC(=O)NCCN(C)C)c1ccc(Cl)c(Oc2ccccc2)c1F [Example 242] | 3900 | 0.89 | – |
| CC[C@@H](N[C@@H](C)CC(N)=O)c1ccc(Cl)c(Oc2ccc(NC(C)=O)c(C)c2)c1F [Example 244, (S)-3-{(R)-1-[3-(4-Acetylamino-3-methyl-phenoxy)-4-chloro-2-fluoro-phenyl]-propylamino}-butyramide.hydrochloride] | 470 | 0.099 | – |
| CC[C@@H](N[C@@H](C)CC(N)=O)c1ccc(Cl)c(Oc2ccc(C#N)nc2)c1F [Example 246] | 170 | > 10 | – |
| CC[C@@H](N[C@@H](C)CC(N)=O)c1ccc(Cl)c(Oc2ccc(C(N)=O)nc2)c1F [Example 249] | 380 | 4.6 | – |
| CC[C@@H](N[C@@H](C)CC(=O)N[C@H]1CCNC1)c1ccc(Cl)c(Oc2ccccc2)c1F [Example 250] | 950 | 1 | – |
| CC[C@@H](N[C@@H](C)CC(=O)N[C@@H](C)CN)c1ccc(Cl)c(Oc2ccccc2)c1F [Example 251] | 61 | 1.8 | – |
| CC[C@@H](N[C@@H](C)CC(=O)NC(C)(C)CN)c1ccc(Cl)c(Oc2ccccc2)c1F [Example 252] | 1900 | 0.88 | – |
| CC[C@@H](N[C@@H](C)CC(N)=O)c1ccc(Cl)c(Oc2ccc([N+](=O)[O-])c(OC)c2)c1F [Example 253] | 410 | 0.13 | – |
| CC[C@@H](N[C@@H](C)CC(N)=O)c1ccc(Cl)c(Oc2ccc(N)c(OC)c2)c1F [Example 255] | 230 | 0.012 | – |
| CC[C@@H](N[C@@H](C)CC(N)=O)c1ccc(Cl)c(Oc2ccc(N)c(C(F)(F)F)c2)c1F [Example 260] | 170 | 0.043 | – |
| CC[C@@H](N[C@@H](C)CC(=O)N[C@@H]1CCNC1)c1ccc(Cl)c(Oc2ccccc2)c1F [Example 263] | 390 | 1.6 | – |
| CC[C@@H](N[C@@H](C)CC(=O)NC1CCNCC1)c1ccc(Cl)c(Oc2ccccc2)c1F [Example 264] | 4600 | 0.6 | – |
| CC[C@@H](N[C@@H](C)CC(=O)NCCNCc1ccccc1)c1ccc(Cl)c(Oc2ccccc2)c1F [Example 265] | 1100 | 0.47 | – |
| CC[C@@H](N[C@@H](C)CC(N)=O)c1ccc(Cl)c(Oc2ccc(N)c(Cl)c2)c1F [Example 266C, (S)-3-{(R)-1-[3-(4-Amino-3-chloro-phenoxy)-4-chloro-2-fluoro-phenyl]-propyl-amino}-butyramide.dihydrochloride] | 87 | 0.023 | – |
| CC[C@@H](N[C@H](C)CC(N)=O)c1ccc(Cl)c(Oc2ccc(N)c(Cl)c2)c1F [Example 267] | 480 | > 10 | – |
| N[C@H]1CC[C@H](NCc2ccc(Cl)c(Oc3ccccc3)c2F)CC1 [Example 271, trans-N-(4-Chloro-2-fluoro-3-phenoxy-benzyl)-cyclohexane-1,4-diamine. dihydrochloride] | 260 | 0.34 | – |
| Cc1ccc(CN[C@H]2CC[C@H](N)CC2)c(F)c1Oc1ccccc1 [Example 272, trans-N-(2-Fluoro-4-methyl-3-phenoxy-benzyl)-cyclohexane-1,4-diamine.dihydrochloride] | 880 | 5.3 | – |
| CCN(Cc1ccc(Cl)c(Oc2ccccc2)c1F)[C@H]1CC[C@H](N)CC1 [Example 273B, trans-N-(4-Chloro-2-fluoro-3-phenoxy-benzyl)-N-ethyl-cyclohexane-1,4-diamine.dihydrochloride] | 2300 | 0.76 | – |
| CC[C@H](Nc1ncc[nH]1)c1ccc(Cl)c(Oc2ccccc2)c1F [Example 275, [(S)-1-(4-Chloro-2-fluoro-3-phenoxy-phenyl)-propyl]-(1H-imidazol-2-yl)-amine.hydrochloride] | 410 | > 10 | – |

| SMILES | IC50 [1, 4] [nM] | EC50 [2, 5] [µM] | also measured |
| --- | --- | --- | --- |
| C[C@@H](CC(=O)NCCN)N[C@H](CC1CCOCC1)c1ccc(Cl)c(Oc2ccccc2)c1F [Example 277, (S)—N-(2-Amino-ethyl)-3-[(R)-1-(4-chloro-2-fluoro-3-phenoxy-phenyl)-2-(tetrahydro-pyran-4-yl)-ethylamino]-butyramide.dihydrochloride] | 110 | 1 | – |
| N[C@H]1CC[C@H](NCc2cccc(Oc3ccccc3)c2)CC1 [Example 280] | 5300 | 0.4 | – |
| N[C@H]1CC[C@@H](NCc2cccc(Oc3ccccc3)c2)CC1 [Example 281] | 10000 | 0.79 | – |
| N[C@H]1CC[C@H](NCc2ccc(F)c(Oc3ccccc3)c2F)CC1 [Example 282] | 730 | 0.37 | – |
| N[C@H]1CC[C@@H](NCc2ccc(F)c(Oc3ccccc3)c2F)CC1 [Example 283] | 750 | 0.27 | – |
| CS(=O)(=O)Nc1cccc(Oc2c(F)ccc(CN[C@H]3CC[C@H](N)CC3)c2F)c1 [Example 284] | 1400 | > 10 | – |
| Cc1cc(Oc2c(F)ccc(CN[C@H]3CC[C@H](N)CC3)c2F)ccc1N [Example 287] | 440 | 6.5 | – |
| Cc1cc(Oc2c(F)ccc(CN[C@H]3CC[C@@H](N)CC3)c2F)ccc1N [Example 288] | 1400 | 1.4 | – |
| N[C@H]1CC[C@H](CNCc2ccc(Cl)c(Oc3ccccc3)c2F)CC1 [Example 289] | 1100 | 0.18 | – |
| N[C@H]1CC[C@H](NCc2ccc(F)c(Oc3ccccc3)c2Cl)CC1 [Example 290] | 3400 | 10 | – |
| CC[C@@H](N[C@@H](C)CC(N)=O)c1ccc(Cl)c(Oc2ccc(C)nc2)c1F [Example 313] | 150 | > 10 | – |
| CCNCCNC(=O)C[C@H](C)N[C@H](CC)c1ccc(Cl)c(Oc2ccccc2)c1F [Example 316] | 400 | > 10 | – |
| CC[C@@H](N[C@@H](C)CC(N)=O)c1ccc(Cl)c(Oc2ccc(-c3cnco3)c(C)c2)c1F [Example 317] | 450 | 2.7 | – |
| CC[C@@H](N[C@@H](C)CC(=O)N[C@H]1C[C@H](N)C1)c1ccc(Cl)c(Oc2ccccc2)c1F [Example 319] | 3500 | 8.6 | – |
| CC[C@@H](N[C@@H](C)CC(N)=O)c1ccc(Cl)c(Oc2ccc3c(c2)C(C)(C)CN3)c1F [Example 322] | 270 | 1.2 | – |
| CC[C@H](N[C@@H](C)CC(N)=O)c1ccc(Cl)c(Oc2ccccc2)c1Cl [Example 324] | 1800 | > 10 | – |
| CC[C@H](N[C@H](C)CC(N)=O)c1ccc(Cl)c(Oc2ccccc2)c1Cl [Example 325] | – | > 10 | IC50 ([1]; IC50 values of 10-150 μM against the protease activity of the full length NS34a, or at least 40% inhibition of protease activity at a concentration of 100 μM): 10000 to 150000 nM |
| C[C@@H](CC(=O)NCCN)NCc1ccc(Cl)c(Oc2ccccc2)c1F [Example 329] | – | 4 | inhibition at 0.03 µM [1]: 57% |
| CC[C@@H](N[C@@H](C)C(=O)NCCCN)c1ccc(Cl)c(Oc2ccccc2)c1F [Example 331] | – | > 10 | inhibition at 0.03 µM [1]: 49.5% |
| CC[C@@H](N[C@@H](C)CC(N)=O)c1ccc(Cl)c(Oc2ccc(N)c(F)c2)c1F [Example 333] | 61 | 0.057 | – |
